{"source": "paper PMC8766756", "about": "“Insights on Cancer Cell Inhibition, Subcellular Activities, and Kinase Profile of Phenylacetamides Pending 1H-Imidazol-5-One Variants” (Frontiers in Pharmacology, 2022)", "experiment_in_all_cases": "PamChip tyrosine kinase microarray", "format_in_all_cases": "biochemical", "settings_in_all_cases": "0.1 µM, HL60 lysate", "key": {"EGFR (P00533)": {"biological_target": "T1, EGFR (P00533) (Homo sapiens, UniProt P00533)", "T1 construct": "purchased PamGene (PamChip PTK array, Upstream Kinase Analysis)", "T1 sequence (P00533 25-1210)": "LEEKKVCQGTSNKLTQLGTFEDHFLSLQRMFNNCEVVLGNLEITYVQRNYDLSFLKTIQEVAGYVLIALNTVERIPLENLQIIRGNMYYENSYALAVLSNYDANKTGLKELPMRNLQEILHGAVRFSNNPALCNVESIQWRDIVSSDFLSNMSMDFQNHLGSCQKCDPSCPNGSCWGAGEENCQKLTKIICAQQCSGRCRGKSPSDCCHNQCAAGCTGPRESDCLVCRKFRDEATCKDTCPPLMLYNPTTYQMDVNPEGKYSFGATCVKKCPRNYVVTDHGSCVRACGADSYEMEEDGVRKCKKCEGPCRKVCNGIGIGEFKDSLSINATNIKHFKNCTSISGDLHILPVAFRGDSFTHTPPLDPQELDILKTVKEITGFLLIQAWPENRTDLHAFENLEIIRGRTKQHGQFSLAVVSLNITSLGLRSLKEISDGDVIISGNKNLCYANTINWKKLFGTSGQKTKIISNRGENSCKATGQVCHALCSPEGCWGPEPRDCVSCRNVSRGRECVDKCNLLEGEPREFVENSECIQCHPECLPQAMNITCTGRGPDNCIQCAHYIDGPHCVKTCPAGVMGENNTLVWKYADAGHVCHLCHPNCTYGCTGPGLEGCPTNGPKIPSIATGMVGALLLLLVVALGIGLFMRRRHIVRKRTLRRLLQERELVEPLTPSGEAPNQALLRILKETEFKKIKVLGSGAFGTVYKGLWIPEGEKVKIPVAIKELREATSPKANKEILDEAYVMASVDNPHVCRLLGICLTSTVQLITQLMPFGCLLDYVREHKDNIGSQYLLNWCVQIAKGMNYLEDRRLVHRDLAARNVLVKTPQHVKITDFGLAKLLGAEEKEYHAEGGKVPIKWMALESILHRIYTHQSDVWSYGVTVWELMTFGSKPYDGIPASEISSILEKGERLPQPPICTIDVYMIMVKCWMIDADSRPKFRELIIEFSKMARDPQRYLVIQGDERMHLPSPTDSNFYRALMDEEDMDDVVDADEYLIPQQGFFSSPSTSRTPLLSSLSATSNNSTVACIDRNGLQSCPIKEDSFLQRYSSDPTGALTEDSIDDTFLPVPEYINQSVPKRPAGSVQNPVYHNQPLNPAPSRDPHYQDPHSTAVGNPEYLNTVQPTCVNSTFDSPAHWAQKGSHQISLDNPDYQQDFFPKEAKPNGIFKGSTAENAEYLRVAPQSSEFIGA", "in_short": "(§1)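 HL60 (AML) cell lysate was spiked with compound at 0.001, 0.01, 0.1, 1, 10 and 50 µM, or 2% v/v DMSO as control, then profiled in technical replicates on a tyrosine kinase peptide array of 196 phosphosites. Kinase activity was inferred from peptide-set changes using an upstream kinase tool.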"}, "FLT3 (P36888)": {"biological_target": "T2, FLT3 (P36888) (Homo sapiens, UniProt P36888)", "T2 construct": "purchased PamGene (PamChip PTK array, Upstream Kinase Analysis)", "T2 sequence (P36888 27-993)": "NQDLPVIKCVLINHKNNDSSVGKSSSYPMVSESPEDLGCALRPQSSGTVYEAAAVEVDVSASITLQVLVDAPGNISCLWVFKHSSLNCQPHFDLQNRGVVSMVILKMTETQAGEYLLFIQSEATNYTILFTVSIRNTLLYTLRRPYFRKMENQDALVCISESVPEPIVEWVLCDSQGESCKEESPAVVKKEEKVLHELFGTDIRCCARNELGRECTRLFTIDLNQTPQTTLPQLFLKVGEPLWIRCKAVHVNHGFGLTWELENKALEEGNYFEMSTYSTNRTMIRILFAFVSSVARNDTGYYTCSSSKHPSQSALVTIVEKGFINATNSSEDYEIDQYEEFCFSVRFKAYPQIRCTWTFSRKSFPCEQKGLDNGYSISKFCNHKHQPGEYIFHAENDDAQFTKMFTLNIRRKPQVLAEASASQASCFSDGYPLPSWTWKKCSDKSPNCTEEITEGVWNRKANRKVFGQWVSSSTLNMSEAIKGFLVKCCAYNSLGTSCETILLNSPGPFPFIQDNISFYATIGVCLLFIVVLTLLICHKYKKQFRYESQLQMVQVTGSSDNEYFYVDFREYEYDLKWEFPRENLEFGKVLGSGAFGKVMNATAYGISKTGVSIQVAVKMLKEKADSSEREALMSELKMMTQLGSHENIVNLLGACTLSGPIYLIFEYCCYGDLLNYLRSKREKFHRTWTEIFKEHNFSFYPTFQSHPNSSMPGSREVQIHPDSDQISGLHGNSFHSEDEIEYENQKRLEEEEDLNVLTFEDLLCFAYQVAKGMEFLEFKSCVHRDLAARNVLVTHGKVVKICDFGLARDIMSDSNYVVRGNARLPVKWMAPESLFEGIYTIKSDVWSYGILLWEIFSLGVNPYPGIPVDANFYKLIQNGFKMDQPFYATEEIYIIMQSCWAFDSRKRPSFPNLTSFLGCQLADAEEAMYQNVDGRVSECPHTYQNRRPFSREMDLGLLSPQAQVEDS", "in_short": "as §1"}, "FLT4 (P35916)": {"biological_target": "T3, FLT4 (P35916) (Homo sapiens, UniProt P35916)", "T3 construct": "purchased PamGene (PamChip PTK array, Upstream Kinase Analysis)", "T3 sequence (P35916 25-1363)": "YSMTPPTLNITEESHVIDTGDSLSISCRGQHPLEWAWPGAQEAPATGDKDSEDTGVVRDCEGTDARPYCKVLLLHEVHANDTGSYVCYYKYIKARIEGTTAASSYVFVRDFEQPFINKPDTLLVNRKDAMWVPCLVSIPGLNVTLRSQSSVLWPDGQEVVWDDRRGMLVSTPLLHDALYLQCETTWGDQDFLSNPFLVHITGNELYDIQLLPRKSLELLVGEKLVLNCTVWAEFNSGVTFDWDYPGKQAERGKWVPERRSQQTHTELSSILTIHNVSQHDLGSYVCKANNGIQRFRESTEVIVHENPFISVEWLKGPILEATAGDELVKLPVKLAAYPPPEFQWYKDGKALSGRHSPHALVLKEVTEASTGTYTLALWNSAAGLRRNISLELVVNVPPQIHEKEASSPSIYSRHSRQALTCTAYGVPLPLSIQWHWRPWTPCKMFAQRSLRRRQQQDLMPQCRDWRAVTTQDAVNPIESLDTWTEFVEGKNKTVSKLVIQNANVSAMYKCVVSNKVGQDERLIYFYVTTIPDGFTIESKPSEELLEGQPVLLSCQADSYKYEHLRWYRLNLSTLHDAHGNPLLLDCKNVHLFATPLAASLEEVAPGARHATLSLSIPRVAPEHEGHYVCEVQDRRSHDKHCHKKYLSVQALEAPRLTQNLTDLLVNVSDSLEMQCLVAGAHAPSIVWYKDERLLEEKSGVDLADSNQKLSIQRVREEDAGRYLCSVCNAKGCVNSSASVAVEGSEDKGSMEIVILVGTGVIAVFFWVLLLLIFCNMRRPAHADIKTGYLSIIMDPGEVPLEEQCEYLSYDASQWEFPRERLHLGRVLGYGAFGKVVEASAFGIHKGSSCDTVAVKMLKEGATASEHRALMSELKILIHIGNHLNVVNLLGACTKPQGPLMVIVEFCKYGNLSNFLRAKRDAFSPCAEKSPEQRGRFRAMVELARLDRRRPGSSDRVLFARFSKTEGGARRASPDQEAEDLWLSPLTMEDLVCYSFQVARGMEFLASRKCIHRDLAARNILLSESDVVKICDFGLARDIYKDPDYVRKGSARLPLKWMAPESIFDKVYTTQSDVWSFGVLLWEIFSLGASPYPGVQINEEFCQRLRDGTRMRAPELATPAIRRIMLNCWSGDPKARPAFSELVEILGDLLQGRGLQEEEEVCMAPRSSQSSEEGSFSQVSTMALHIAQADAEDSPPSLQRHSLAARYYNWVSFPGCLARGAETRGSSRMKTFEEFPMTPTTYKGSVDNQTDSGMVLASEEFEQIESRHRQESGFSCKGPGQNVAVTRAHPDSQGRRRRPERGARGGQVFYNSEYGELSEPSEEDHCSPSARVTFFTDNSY", "in_short": "as §1"}}, "note": "“And” between values parts separate entries of the source, which are not always exact repeats. Identical values can stand only once."}
{"molecule": "COc1ccc(/C=C2\\N=C(C)N(c3ccc(CC(=O)NCc4ccccc4)cc3)C2=O)cc1", "note": "[Compound 4c, (Z)-N-Benzyl-2-(4-(4-(4-methoxybenzylidene)-2-methyl-5-oxo-4,5-dihydro-1H-imidazol-1-yl)phenyl)acetamide]", "values": [{"measurement": "Mean Final score (Kinase score)", "setting": "EGFR (P00533)", "result": 2.116}, {"measurement": "Mean Kinase Statistic", "setting": "EGFR (P00533)", "result": -1.053}, {"measurement": "Mean Significance Score", "setting": "EGFR (P00533)", "result": 2.048}, {"measurement": "Mean Specificity Score", "setting": "EGFR (P00533)", "result": 0.03887}, {"measurement": "Mean Significance Score", "setting": "FLT3 (P36888)", "result": 2.042}, {"measurement": "Mean Specificity Score", "setting": "FLT3 (P36888)", "result": 1.043}, {"measurement": "Mean Final score (Kinase score)", "setting": "FLT3 (P36888); listed as KIM-161", "result": "3.19 and 3.193"}, {"measurement": "Mean Significance Score", "setting": "FLT4 (P35916)", "result": 2.048}, {"measurement": "Mean Specificity Score", "setting": "FLT4 (P35916)", "result": 1.142}, {"measurement": "Mean Final score (Kinase score)", "setting": "FLT4 (P35916); listed as KIM-161", "result": "3.15 and 3.152"}]}
